We go through 76 compounds from PubChem BioAssay AID743394 (Broad Institute, 2014).

Active and inactive are the calls of the source.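 The calls were made as follows: active = 40% activation versus positive control reached by fitted dose-response curve at or below highest valid tested dose; inconclusive = poor fit quality, or flat fit with activation between 30% and 70%; inactive = the rest.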

One assay is described as follows: inactive X chromosome reactivation in XiGFP fibroblasts, dose response, imaging, 68-5-11 mouse fibroblasts, GFP, cherry-pick (AID 743394).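 Also: sensitizer 5-aza-dC present in the wells at 0.5 mM final.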 The following applies: 68-5-11 mouse fibroblast XiGFP reporter, % GFP-positive imaging, 3 d; at 19.5 µM (top of the series).
For `COC(=O)Cn1cc(/C=C2\C(=O)NC(=O)N(c3ccc(OC)cc3)C2=O)c2ccccc21`, the activation was 0.09% (inactive).

Staying with this assay, now noted: 68-5-11 mouse fibroblast XiGFP reporter, % GFP-positive imaging, 3 d; at 19.5 µM (top of the series); cells co-treated with 5-aza-dC sensitizer; scaled: neutral wells 0, ellipticine wells 100.
Consider `O=C(COC(=O)c1ccc(NS(=O)(=O)c2cccs2)cc1O)NC1CCCCC1`, for which the activation was 0.098% (inactive).

For `CC(C)C(NC(=O)c1ccc(F)cc1)C(=O)NCC1CCCO1` (stereo unspecified), the activation is 0.21% (inactive).

As for `CC(=O)Nc1sc(C)c(C)c1C(=O)OCC(=O)Nc1cc(S(C)(=O)=O)ccc1Cl`, the activation is 0.641% (inactive).

Consider `Nc1ccccc1Nc1cc(-c2ccccc2)[nH]n1`, for which the activation was -0.047% (inactive).

As to `COc1ccc(NC(=O)Nc2ccc3c(c2)C(=O)N([C@@H](C)CO)C[C@H](C)[C@@H](CN(C)S(=O)(=O)c2ccc(OC)cc2)O3)cc1`, the activation was 0.014% (inactive).

For `COc1ccccc1CNC(=O)COC(=O)COc1ccccc1F`, the activation is 0.549% (inactive).

Regarding `COc1cccc2cc(C(=O)N(Cc3cccs3)CC3CCCO3)c(=O)oc12` (stereo unspecified), the activation is -0.044% (inactive).

`COC(=O)c1ccc(CNC(=O)COC(=O)c2cc(Cl)ccc2O)cc1`: the activation is 0.385% (inactive).

With `CC1CCN(C(=O)Cn2nnc(-c3ccccc3)n2)CC1`, the activation is 0.315% (inactive).

Consider `C[C@H](NC(=O)C[C@H]1CC[C@@H](NC(=O)Cc2ccccn2)[C@@H](CO)O1)c1ccccc1`, for which the activation was 0.043% (inactive).

As for `O=C1c2ccccc2C(=Cc2cccnc2)c2ccccc21`, the activation was 0.325% (inactive).

Consider `CC(C)(C)N(Cc1ccccc1)C(=O)COC(=O)c1ccc(N2CCCC2=O)cc1`, for which the activation is 0.165% (inactive).

Consider `COc1ccccc1NC(=S)N(CCCN1CCOCC1)Cc1cccs1`, for which the activation was -0.076% (inactive).

For the compound `CCCOc1ccc(Oc2nc(-c3ccncc3)nc3ccccc23)cc1`, the activation was 0.003% (inactive).

As to `Cc1nn2c(NCCCN(C)C)c3c(nc2c1-c1ccccc1)CCCC3`, the activation was 0.079% (inactive).

With `O=C(NCCOc1ccccc1)c1cc([N+](=O)[O-])ccc1N1CCOCC1`, the activation is 0.193% (inactive).

On to `Cc1ccc(Cn2cc(/C=N/Nc3ccc([N+](=O)[O-])cn3)c3ccccc32)cc1`, for which the activation was 1.53% (inactive).

Regarding `O=C(c1ccccc1Cl)N1CCSCCS1(=O)=O`, the activation is 0.035% (inactive).

In the case of `CC(C)c1ccc(N2C(=O)/C(=C/N(C)C)SC2=S)cc1`, the activation was 0.088% (inactive).

On to `C[C@H](CO)N1C[C@H](C)[C@H](CN(C)C(=O)Nc2ccc(F)cc2)Oc2ncc(C#Cc3cccc(F)c3)cc2C1=O`, for which the activation is -0.031% (inactive).

As to `CC(=O)Nc1sc(N/N=C/c2ccc(N(C)C)cc2)nc1-c1ccc(C)cc1`, the activation was 0.052% (inactive).

In the case of `C=CCn1c(=S)[nH]c2scc(-c3ccco3)c2c1=O`, the activation was 0.072% (inactive).

With `O=C(N/N=C\c1c(O)ccc2ccccc12)c1ccc(S(=O)(=O)N2CCCCC2)cc1`, the activation is 12.4% (inactive).

As to `S=C(NCc1ccco1)Nc1cccc(Cl)c1Cl`, the activation is -0.047% (inactive).

On to `OC[C@@H]1Nc2ccc(C#Cc3ccccc3)cc2[C@H]2[C@@H]1CCN2Cc1nccs1`, for which the activation is 0.161% (inactive).

As to `COc1ccccc1/C=C/C(=O)OCCCN(C)C`, the activation is 0.018% (inactive).

As for `COc1cc(/C=N/Nc2nc(N3CCCC3)nc(N3CCCC3)n2)ccc1OCc1ccccc1F`, the activation is 0.149% (inactive).

As to `O=C(OCc1cc(=O)n2c(n1)sc1ccccc12)c1ccc(O)cc1O`, the activation was 0.076% (inactive).

For `CCCC(=O)OCCNc1cc(Sc2nccn2C)c2nonc2c1[N+](=O)[O-]`, the activation was -0.034% (inactive).

Regarding `C[C@@H]1CN([C@@H](C)CO)C(=O)c2ccccc2-c2ccccc2CO[C@@H]1CN(C)C(=O)Nc1ccc2c(c1)OCO2`, the activation was 0.081% (inactive).

In the case of `CN(C)S(=O)(=O)c1cccc(C(=O)NCC2(N3CCOCC3)CCCCC2)c1`, the activation was -0.002% (inactive).

As to `CCCCCCCCN1C(=O)[C@H](CC(=O)N2CCSCC2)C[C@@]2(C(=O)OCC)CCCC=C12`, the activation is 0.117% (inactive).

On to `CC(=O)C1=NN(c2ccc(Cl)cc2)C(c2ccc3c(c2)OCO3)N(C(C)=O)N1C` (stereo unspecified), for which the activation is -0.032% (inactive).

With `NS(=O)(=O)c1cccc(NC(=O)COC(=O)Cc2ccc(S(=O)(=O)N3CCOCC3)s2)c1`, the activation is 0.056% (inactive).

Take `COCCN(C(=S)Nc1cccc(C)c1)C(C)c1cccnc1` (stereo unspecified): the activation is 0.005% (inactive).

Turning to `CN1c2ccc(-c3ccc(C#N)cc3)cc2[C@@H]2[C@@H](CCN2C(=O)NC2CCCCC2)[C@H]1CO`, the activation was 0.002% (inactive).

As to `COc1cc(/C=C/c2ccc3cccc(O)c3n2)cc(OC)c1OC`, the activation is -0.032% (inactive).

For `CC(=Nc1ccc(Cl)cc1N)c1c(O)cc(C)oc1=O`, the activation is -0.044% (inactive).

In the case of `COc1ccccc1C(=O)Nc1nnc(S(=O)(=O)N2CCCCCC2)s1`, the activation was 0.014% (inactive).

For the compound `O=C(c1cnccn1)N1CC(=O)N2[C@H](CO)[C@@H](c3ccc(-c4cccc(F)c4)cc3)[C@@H]2C1`, the activation is -0.014% (inactive).

Consider `COc1ccc(NC(=O)Nc2ccc3c(c2)C(=O)N([C@H](C)CO)C[C@H](C)[C@H](CN(C)Cc2ccc4c(c2)OCO4)O3)cc1`, for which the activation was -0.031% (inactive).

Turning to `Cc1ccc(S(=O)(=O)N2CCOCC2)cc1C(=O)OCC(=O)NC1CCS(=O)(=O)C1` (stereo unspecified), the activation was -0.034% (inactive).

Take `COc1ccc(S(=O)(=O)Nc2cccc3c2O[C@H](CN(C)S(=O)(=O)c2cn(C)cn2)[C@H](C)CN([C@H](C)CO)C3=O)cc1`: the activation was -0.035% (inactive).

Turning to `CC(Sc1nnc(Cc2ccccc2)o1)C(=O)Nc1ccccc1[N+](=O)[O-]` (stereo unspecified), the activation was -0.032% (inactive).

Regarding `O=C1c2ccccc2C(=O)C1c1ccccc1`, the activation was -0.024% (inactive).

On to `CCOc1ccc(CCN2C(=S)N([C@@H](Cc3ccccc3)CN3CCC[C@@H]3CN3C(=S)NC[C@@H]3CC(C)C)C[C@@H]2Cc2ccccc2)cc1`, for which the activation was 0.011% (inactive).

Turning to `O=C(O)c1ccc(COc2ccccc2C=C2C(=O)c3ccccc3C2=O)cc1`, the activation was 0.163% (inactive).

In the case of `COc1cccc(CNC(=O)c2ccc(NC(=O)CC3SC(N4CCCC4)=NC3=O)cc2)c1` (stereo unspecified), the activation was 0.01% (inactive).

On to `Oc1cccc(/C=N/NC(=S)NCCN2CCOCC2)c1O`, for which the activation is -0.016% (inactive).

Take `COc1ccc(-c2nnc(NC(=O)c3ccc(F)cc3)o2)cc1`: the activation was -0.035% (inactive).

Regarding `CC(=NNc1ccc2ccccc2n1)c1ccccn1`, the activation is 1.93% (inactive).

Regarding `CC(=O)Nc1ccc(NS(=O)(=O)c2ccc3c(c2)oc(=O)n3C)cc1`, the activation is 5.23% (inactive).

With `C[C@@H]1CN([C@@H](C)CO)S(=O)(=O)c2ccc(C#CC3CC3)cc2O[C@H]1CN(C)Cc1ccc(F)cc1`, the activation was 0.063% (inactive).

With `Nc1[nH]c(=O)nc(Nc2ccccc2)c1N=O`, the activation is -0.037% (inactive).

With `Cc1cccc(OCC(=O)N(C)c2c(N)n(Cc3ccccc3)c(=O)[nH]c2=O)c1C`, the activation is 0.012% (inactive).

In the case of `Cc1ccc(NCc2nnc(SCC(=O)NNC(=O)Cc3ccccc3)n2C)cc1`, the activation is 0.012% (inactive).

As to `CN(C)CC(=O)N1CC2(C1)[C@@H](c1ccccc1)[C@H](CO)N2C(=O)C1CC1`, the activation is -0.015% (inactive).

For the compound `Cc1ccnc(NS(=O)(=O)c2ccc3c(c2)CCO3)c1`, the activation is 0.025% (inactive).

Take `C[C@H](NC(=O)C[C@@H]1CC[C@H](NC(=O)Cc2ccccn2)[C@@H](CO)O1)c1ccccc1`: the activation is 0.019% (inactive).

Turning to `COc1cc(CN2CCC(C(=O)NCC(C)(C)CN(C)C)CC2)ccc1OCc1ccccc1`, the activation is -0.029% (inactive).

Regarding `O=C(Nc1c(F)cccc1F)C(c1ccccc1)c1ccccc1`, the activation was 0.013% (inactive).

With `Cc1ccc(-c2csc3nc4c5ccccc5c(NCCCN(C)C)nn4c(=O)c23)cc1`, the activation was -0.05% (inactive).

With `Cc1ccc(-c2[nH]c(=S)[nH]c(=O)c2C#N)cc1`, the activation is -0.003% (inactive).

Take `Cn1c(=O)[nH]c(=O)c2c1nc1n2CCCN1Cc1ccccc1`: the activation is 0.106% (inactive).

`O=C(CNC(=O)c1ccccc1F)OCc1nc2ccccc2s1`: the activation was -0.127% (inactive).

Take `COc1cc(/C=C/C(=O)c2ccc3c(c2)OCCO3)cc(Br)c1OCC(=O)N(C)C`: the activation was -0.06% (inactive).

`COc1cc(/C=C/c2ccc3cccc(O)c3n2)ccc1O`: the activation is 3.08% (inactive).

With `CC(O)CN(CC(C)O)c1ccc2c(c1)Cc1cc([N+](=O)[O-])ccc1-2` (stereo unspecified), the activation is 11.6% (inactive).

Turning to `Nc1c(C(=O)O)cnn1-c1ccc([N+](=O)[O-])cc1`, the activation was 0.022% (inactive).

Take `CCn1c(Cl)c(C=O)s/c1=N\S(=O)(=O)c1ccccc1`: the activation was 1.44% (inactive).

Regarding `COc1ccc(-c2ccc(C3[C@@H]4CN(S(=O)(=O)c5ccccc5C)C[C@H]3N4)cc2)cc1` (stereo partly specified), the activation was 0% (inactive).

As to `CCOC(=O)c1sc(Nc2ccc(Br)cc2)nc1C`, the activation is 0.082% (inactive).

For the compound `O=c1c(Cl)c(Cl)cnn1Cc1nnc(-c2ccccc2Br)o1`, the activation is -0.053% (inactive).

Still in this assay, the particulars now being: 68-5-11 mouse fibroblast XiGFP reporter, % GFP-positive imaging, 3 d; at 21 µM (top of the series); cells co-treated with 5-aza-dC sensitizer; scaled: neutral wells 0, ellipticine wells 100.
With `Cc1cccc(CN(C)C[C@@H]2Oc3ncc(C#Cc4ccccc4)cc3C(=O)N([C@H](C)CO)C[C@@H]2C)c1`, the activation was -0.035% (inactive).

For the compound `COc1ccc(S(=O)(=O)N(C)C[C@@H]2OCc3cn(nn3)CCCC(=O)N([C@@H](C)CO)C[C@@H]2C)cc1`, the activation is 0.05% (inactive).
